Results: patent publication US7601716B2, “Pyridopyrazines and derivatives thereof as ALK and c-Met inhibitors” (Cephalon, Inc., priority 2006, dated 2009)
Where a name gives a salt, the structure may show the parent alone.

Legend:
[1] = target: T1, c-Met (cytoplasmic domain) (Homo sapiens, UniProt P08581); test: c-Met Kinase Assay (ELISA/TRF, PLC-γ substrate); format: biochemical; settings: 3 μM ATP (Km level); read-out: c-Met Kinase Inhibition (IC50)
T1 construct: Reactions were initiated with 30 ng/mL c-Met (cytoplasmic domain, Invitrogen Corporation #PV3143); purchased Invitrogen Corporation PV3143
Method: Example compounds were tested for their ability to inhibit the kinase activity of baculovirus-expressed ALK using a modification of the ELISA protocol reported for trkA in Angeles, T. S. et al., Anal. Biochem. 1996, 236, 49-55, which is incorporated herein by reference in its entirety. Phosphorylation of the substrate, phospholipase C-gamma (PLC-γ) generated as a fusion protein with glutathione S-transferase (GST) as reported in Rotin, D. et al., EMBO J. 1992, 11, 559-567, which is incorporated herein by reference in its entirety, was detected with a europium-labeled anti-phosphotyrosine antibody and measured by time-resolved fluorescence (TRF). Briefly, each 96-well plate was coated with 100 μL/well of 10 μg/mL substrate (phospholipase C-γ) in Tris-buffered saline (TBS). […] The reaction was initiated by adding enzyme (30 ng/ml ALK) and was allowed to proceed at 37° C. for 15 minutes. Detection of the phosphorylated product was performed by adding 100 μl/well of Eu-N1 labeled PT66 antibody (Perkin Elmer # AD0041). Incubation at 37° C. then proceeded for one (1) hour, followed by addition of 100 μL enhancement solution (Wallac #1244-105). The plate was gently agitated and after thirty minutes, the fluorescence of the resulting solution was measured using the EnVision 2100 (or 2102) multilabel plate reader (Perkin Elmer).
Data analysis was performed using ActivityBase (IDBS, Guilford, UK). IC50 values were calculated by plotting percent inhibition versus log10 of the concentration of compound and fitting to the nonlinear regression sigmoidal dose-response (variable slope) equation in XLFit (IDBS, Guilford, UK).
Reactions were initiated with 30 ng/mL c-Met (cytoplasmic domain, Invitrogen Corporation #PV3143).

[2] = target: baculovirus-expressed ALK (Homo sapiens, UniProt Q9UM73); test: ALK Kinase Assay (ELISA/TRF, PLC-γ substrate); format: biochemical; settings: read-out: ALK Kinase Inhibition (IC50); further: 1 µM ATP (Km level)
Outline: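 Substrate phosphorylation by 30 ng/ml ALK (37° C, 15 min) on PLC-γ-coated wells is quantified via time-resolved europium fluorescence from an anti-phosphotyrosine antibody. Percent inhibition against log10 compound concentration yields IC50 by nonlinear regression.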

Chain of baculovirus-expressed ALK (Q9UM73 19-1620): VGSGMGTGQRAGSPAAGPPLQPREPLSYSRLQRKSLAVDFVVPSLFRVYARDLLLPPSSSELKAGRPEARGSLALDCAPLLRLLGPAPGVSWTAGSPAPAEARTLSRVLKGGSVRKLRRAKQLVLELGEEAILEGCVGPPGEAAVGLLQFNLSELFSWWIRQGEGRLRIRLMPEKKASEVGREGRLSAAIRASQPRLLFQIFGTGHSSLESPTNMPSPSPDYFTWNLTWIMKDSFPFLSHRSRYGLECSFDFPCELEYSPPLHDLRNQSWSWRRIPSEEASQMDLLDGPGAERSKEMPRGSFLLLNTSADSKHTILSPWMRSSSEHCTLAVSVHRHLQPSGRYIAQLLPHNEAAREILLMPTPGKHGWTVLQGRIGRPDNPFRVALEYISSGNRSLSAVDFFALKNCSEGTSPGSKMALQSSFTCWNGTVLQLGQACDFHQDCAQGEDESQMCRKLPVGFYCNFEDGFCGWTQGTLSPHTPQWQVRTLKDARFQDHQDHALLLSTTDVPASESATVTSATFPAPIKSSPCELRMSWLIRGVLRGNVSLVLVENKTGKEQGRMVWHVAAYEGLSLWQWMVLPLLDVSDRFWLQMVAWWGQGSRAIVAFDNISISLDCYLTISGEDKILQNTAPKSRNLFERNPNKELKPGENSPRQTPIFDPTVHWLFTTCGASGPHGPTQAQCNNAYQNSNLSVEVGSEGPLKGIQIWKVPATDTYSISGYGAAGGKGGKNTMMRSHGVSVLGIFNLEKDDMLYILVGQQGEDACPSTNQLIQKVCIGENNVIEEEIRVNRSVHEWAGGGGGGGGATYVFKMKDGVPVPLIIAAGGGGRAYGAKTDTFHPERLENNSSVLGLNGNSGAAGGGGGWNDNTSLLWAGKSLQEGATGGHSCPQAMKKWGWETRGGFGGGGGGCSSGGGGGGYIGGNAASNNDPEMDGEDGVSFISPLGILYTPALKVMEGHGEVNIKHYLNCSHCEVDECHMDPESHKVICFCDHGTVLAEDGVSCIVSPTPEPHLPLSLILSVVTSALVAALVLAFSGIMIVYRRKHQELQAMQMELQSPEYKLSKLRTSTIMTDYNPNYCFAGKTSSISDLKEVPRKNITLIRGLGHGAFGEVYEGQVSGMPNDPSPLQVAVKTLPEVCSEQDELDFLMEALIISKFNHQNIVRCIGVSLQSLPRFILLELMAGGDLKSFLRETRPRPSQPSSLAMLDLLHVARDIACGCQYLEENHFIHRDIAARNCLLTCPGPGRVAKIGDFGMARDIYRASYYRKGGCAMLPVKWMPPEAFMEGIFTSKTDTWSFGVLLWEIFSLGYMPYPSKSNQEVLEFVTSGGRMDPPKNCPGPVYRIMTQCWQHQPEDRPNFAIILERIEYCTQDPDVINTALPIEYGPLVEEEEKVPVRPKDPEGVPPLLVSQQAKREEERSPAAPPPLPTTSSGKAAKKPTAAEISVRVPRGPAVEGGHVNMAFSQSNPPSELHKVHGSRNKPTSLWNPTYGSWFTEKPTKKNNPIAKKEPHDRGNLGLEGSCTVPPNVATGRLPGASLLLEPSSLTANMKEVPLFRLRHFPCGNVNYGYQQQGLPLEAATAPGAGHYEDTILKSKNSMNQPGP
T1 sequence (P08581 956-1390 limits assumed): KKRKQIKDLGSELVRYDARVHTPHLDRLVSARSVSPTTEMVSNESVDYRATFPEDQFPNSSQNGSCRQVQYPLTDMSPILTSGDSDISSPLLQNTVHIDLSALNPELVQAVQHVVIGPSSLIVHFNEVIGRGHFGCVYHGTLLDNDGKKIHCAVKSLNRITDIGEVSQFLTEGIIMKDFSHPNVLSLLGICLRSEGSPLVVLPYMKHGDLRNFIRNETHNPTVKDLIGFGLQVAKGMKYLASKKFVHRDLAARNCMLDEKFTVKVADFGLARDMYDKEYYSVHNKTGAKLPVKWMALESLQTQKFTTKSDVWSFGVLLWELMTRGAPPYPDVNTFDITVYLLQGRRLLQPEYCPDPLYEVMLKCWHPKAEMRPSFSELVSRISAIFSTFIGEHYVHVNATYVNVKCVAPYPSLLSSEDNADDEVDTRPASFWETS

IC50 [1] [µM]	IC50 [2] [µM]	SMILES
10 to 100	10 to 100	O=C(c1ccccc1)N1CCNc2ncc(-c3ccc(NS(=O)(=O)CCN4CCCC4)cc3)cc21 [Example 46, 2-Pyrrolidin-1-yl-ethanesulfonic acid[4-(1-benzoyl-1,2,3,4-tetrahydropyrido[2,3-b]pyrazin-7-yl)phenyl]amide]
> 100	10 to 100	O=C1CNc2ncc(-c3ccc(C(=O)N4CCC[C@H]4CN4CCCC4)cc3)cc2N1Cc1ccccc1 [Example 13, S-1-Benzyl-7-[4-(2-[(pyrrolidin-1-yl)methyl]pyrrolidine-1-carbonyl)phenyl]-3,4-dihydro-1H-pyrido[2,3-b]pyrazin-2-one, trifluoroacetic acid salt]
10 to 100	1 to 10	O=C(c1ccc(-c2cnc3c(c2)N(Cc2ccccc2)C(=O)CN3)cc1)N1CCC(N2CCCC2)CC1 [Example 26, 1-Benzyl-7-[4-(4-(pyrrolidin-1-yl)piperidine-1-carbonyl)phenyl]-3,4-dihydro-1H-pyrido[2,3-b]pyrazin-2-one, trifluoroacetic acid salt]
10 to 100	10 to 100	O=C(c1ccc(-c2cnc3ncc(=O)n(Cc4ccccc4)c3c2)cc1)N1CCC(N2CCCC2)CC1 [Example 17, 1-Benzyl-7-[4-(4-(pyrrolidin-1-yl)piperidine-1-carbonyl)phenyl]-1H-pyrido[2,3-b]pyrazin-2-one, trifluoroacetic acid salt]
10 to 100	0.1 to 1	CC(c1cc(F)ccc1F)N1C(=O)CNc2ncc(-c3ccc(C(=O)N4CCC[C@H]4CN4CCCC4)cc3)cc21 (stereo partly shown) [Example 151]

More lines, now with the values behind:

SMILES	IC50 [1] [µM]	IC50 [2] [µM]
CC(c1cc(F)ccc1F)N1CCNc2ncc(I)cc21 (stereo not shown) [Example 153, 1-[1-(2,5-Difluorophenyl)ethyl]-7-iodo-1,2,3,4-tetrahydropyrido[2,3-b]pyrazine]	> 100	> 100
c1ccc(CN2CCNc3ncccc32)cc1 [Example 32, 1-Benzyl-1,2,3,4-tetrahydropyrido[2,3-b]pyrazine]	> 100	> 100
O=C(NCc1ccncc1)c1cnc2c(c1)N(Cc1cc(Cl)ccc1Cl)CCN2 [Example 234, 1-(2,5-Dichlorobenzyl)-1,2,3,4-tetrahydropyrido[2,3-b]pyrazine-7-carboxylic acid (pyridin-4-ylmethyl)amide]	> 100	1 to 10
CN1CCN(C(=O)c2ccc(-c3cnc4c(c3)C(Oc3cc(Cl)ccc3Cl)CCN4)cc2)CC1 (stereo not shown) [Example 272, {4-[5-(2,5-Dichlorophenoxy)-5,6,7,8-tetrahydro-[1,8]naphthyridin-3-yl]phenyl}-(4-methyl-piperazin-1-yl)methanone]	1 to 10	0.1 to 1
O=C(NCc1cccc(Cl)c1)c1cnc2c(c1)N(Cc1cc(Cl)ccc1Cl)CCN2 [Example 228, 1-(2,5-Dichlorobenzyl)-1,2,3,4-tetrahydropyrido[2,3-b]pyrazine-7-carboxylic acid 3-chlorobenzylamide]	10 to 100	1 to 10
O=C(NC1Cc2ccccc2C1)c1cnc2c(c1)N(Cc1cc(Cl)ccc1Cl)CCN2 [Example 259, 1-(2,5-Dichlorobenzyl)-1,2,3,4-tetrahydropyrido[2,3-b]pyrazine-7-carboxylic acid indan-2-ylamide]	> 100	1 to 10
CN1CCN(c2ccc(-c3cnc4c(c3)N(Cc3cccc(F)c3C(F)(F)F)CCN4)cn2)CC1 [Example 181, 1-[3-Fluoro-2-(trifluoromethyl)benzyl]-7-[6-(4-methylpiperazin-1-yl)pyridin-3-yl]-1,2,3,4-tetrahydropyrido[2,3-b]pyrazine]	1 to 10	0.1 to 1
O=C(c1cnc2c(c1)N(Cc1cc(Cl)ccc1Cl)CCN2)N1CCOCC1 [Example 243, [1-(2,5-Dichlorobenzyl)-1,2,3,4-tetrahydropyrido[2,3-b]pyrazin-7-yl]morpholin-4-yl-methanone]	10 to 100	10 to 100
COC(=O)C(C)(C)Nc1ncc(I)cc1[N+](=O)[O-] [Example 90, 2-(5-Iodo-3-nitro-pyridin-2-ylamino)-2-methyl-propionic acid methyl ester]	> 100	> 100
